Data: PubChem BioAssay (NCI)
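Exposure lasted 48 hours, with cells grown in 96-well plates and compounds tested at five concentrations. TGI: concentration producing complete growth inhibition.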

Columns and labels:
Assay in all cases: NCI anticancer screen, dose series, 48 h
UACC-257 melanoma = tested on: UACC-257 melanoma
MDA-MB-231 breast = tested on: MDA-MB-231 breast
CAKI-1 renal = tested on: CAKI-1 renal
OVCAR-8 ovarian = tested on: OVCAR-8 ovarian
OVCAR-3 ovarian = tested on: OVCAR-3 ovarian
786-0 renal = tested on: 786-0 renal
NCI-H23 lung = tested on: NCI-H23 lung
NCI-H226 lung = tested on: NCI-H226 lung
A549 NSCLC = tested on: A549 NSCLC
MDA-MB-435 = tested on: MDA-MB-435
IGROV1 ovarian = tested on: IGROV1 ovarian
SK-MEL-28 melanoma = tested on: SK-MEL-28 melanoma
A498 renal = tested on: A498 renal
SF-539 CNS = tested on: SF-539 CNS
KM12 colon = tested on: KM12 colon
T-47D breast = tested on: T-47D breast
BT-549 breast = tested on: BT-549 breast
HCT-116 colon = tested on: HCT-116 colon
HCC-2998 colon = tested on: HCC-2998 colon
NCI-H460 lung = tested on: NCI-H460 lung
MALME-3M melanoma = tested on: MALME-3M melanoma
SW-620 colon = tested on: SW-620 colon
U251 CNS = tested on: U251 CNS
M14 melanoma = tested on: M14 melanoma
SNB-19 CNS = tested on: SNB-19 CNS
HS 578T breast = tested on: HS 578T breast
CCRF-CEM leukemia = tested on: CCRF-CEM leukemia
SF-268 CNS = tested on: SF-268 CNS
COLO 205 colon = tested on: COLO 205 colon
K-562 leukemia = tested on: K-562 leukemia
SNB-75 CNS = tested on: SNB-75 CNS
MOLT-4 leukemia = tested on: MOLT-4 leukemia
SK-MEL-5 melanoma = tested on: SK-MEL-5 melanoma
MDA-N = tested on: MDA-N
OVCAR-4 ovarian = tested on: OVCAR-4 ovarian
ACHN renal = tested on: ACHN renal
SR leukemia = tested on: SR leukemia
SN12C renal = tested on: SN12C renal
UACC-62 melanoma = tested on: UACC-62 melanoma
SK-OV-3 ovarian = tested on: SK-OV-3 ovarian
OVCAR-5 ovarian = tested on: OVCAR-5 ovarian
RXF 393 renal = tested on: RXF 393 renal
HOP-92 NSCLC = tested on: HOP-92 NSCLC
DU-145 prostate = tested on: DU-145 prostate
SF-295 CNS = tested on: SF-295 CNS
HL-60(TB) leukemia = tested on: HL-60(TB) leukemia
HT29 colon = tested on: HT29 colon
TK-10 renal = tested on: TK-10 renal
EKVX NSCLC = tested on: EKVX NSCLC
MCF7 breast = tested on: MCF7 breast
PC-3 prostate = tested on: PC-3 prostate
HOP-62 NSCLC = tested on: HOP-62 NSCLC
NCI-H522 lung = tested on: NCI-H522 lung
UO-31 renal = tested on: UO-31 renal
LOX IMVI melanoma = tested on: LOX IMVI melanoma
RPMI-8226 leukemia = tested on: RPMI-8226 leukemia

## O=C1CCN(CCC(F)(F)C(F)(F)C(F)(F)C(F)(F)C(F)(F)C(F)(F)F)C(=S)N1CCC(F)(F)C(F)(F)C(F)(F)C(F)(F)C(F)(F)C(F)(F)F
UACC-257 melanoma
  TGI: > 100 µM
MDA-MB-231 breast
  TGI: > 100 µM
CAKI-1 renal
  TGI: > 100 µM
OVCAR-8 ovarian
  TGI: > 100 µM
OVCAR-3 ovarian
  TGI: > 100 µM
786-0 renal
  TGI: > 100 µM
NCI-H23 lung
  TGI: > 100 µM
NCI-H226 lung
  TGI: > 100 µM
A549 NSCLC
  TGI: > 100 µM
MDA-MB-435
  TGI: > 100 µM
IGROV1 ovarian
  TGI: > 100 µM
SK-MEL-28 melanoma
  TGI: > 100 µM
A498 renal
  TGI: > 100 µM
SF-539 CNS
  TGI: > 100 µM
KM12 colon
  TGI: > 100 µM
T-47D breast
  TGI: > 100 µM
BT-549 breast
  TGI: > 100 µM
HCT-116 colon
  TGI: > 100 µM
HCC-2998 colon
  TGI: > 100 µM
NCI-H460 lung
  TGI: > 100 µM
MALME-3M melanoma
  TGI: > 100 µM
SW-620 colon
  TGI: > 100 µM
U251 CNS
  TGI: > 100 µM
M14 melanoma
  TGI: > 100 µM
SNB-19 CNS
  TGI: > 100 µM
HS 578T breast
  TGI: > 100 µM
CCRF-CEM leukemia
  TGI: > 100 µM
SF-268 CNS
  TGI: > 100 µM
COLO 205 colon
  TGI: > 100 µM
K-562 leukemia
  TGI: > 100 µM
SNB-75 CNS
  TGI: > 100 µM
MOLT-4 leukemia
  TGI: > 100 µM
SK-MEL-5 melanoma
  TGI: > 100 µM
MDA-N
  TGI: > 100 µM
OVCAR-4 ovarian
  TGI: > 100 µM
ACHN renal
  TGI: > 100 µM
SR leukemia
  TGI: > 100 µM
SN12C renal
  TGI: > 100 µM
UACC-62 melanoma
  TGI: > 100 µM
SK-OV-3 ovarian
  TGI: > 100 µM
OVCAR-5 ovarian
  TGI: > 100 µM
RXF 393 renal
  TGI: > 100 µM
HOP-92 NSCLC
  TGI: > 100 µM
DU-145 prostate
  TGI: > 100 µM
SF-295 CNS
  TGI: > 100 µM
HL-60(TB) leukemia
  TGI: > 100 µM
HT29 colon
  TGI: > 100 µM
TK-10 renal
  TGI: > 100 µM
EKVX NSCLC
  TGI: > 100 µM
MCF7 breast
  TGI: > 100 µM
PC-3 prostate
  TGI: > 100 µM
HOP-62 NSCLC
  TGI: > 100 µM
NCI-H522 lung
  TGI: > 100 µM
UO-31 renal
  TGI: > 100 µM

## COc1c(Cl)nc2ccccc2c1N=[N+]=[N-]
UACC-257 melanoma
  TGI: > 100 µM
MDA-MB-231 breast
  TGI: > 100 µM
CAKI-1 renal
  TGI: > 100 µM
OVCAR-3 ovarian
  TGI: > 100 µM
786-0 renal
  TGI: > 100 µM
NCI-H23 lung
  TGI: > 100 µM
A549 NSCLC
  TGI: > 100 µM
MDA-MB-435
  TGI: > 100 µM
IGROV1 ovarian
  TGI: > 100 µM
SK-MEL-28 melanoma
  TGI: > 100 µM
A498 renal
  TGI: 60.9 µM
SF-539 CNS
  TGI: > 100 µM
KM12 colon
  TGI: > 100 µM
T-47D breast
  TGI: > 100 µM
BT-549 breast
  TGI: 94.8 µM
HCT-116 colon
  TGI: > 100 µM
HCC-2998 colon
  TGI: > 100 µM
NCI-H460 lung
  TGI: > 100 µM
MALME-3M melanoma
  TGI: > 100 µM
SW-620 colon
  TGI: > 100 µM
U251 CNS
  TGI: > 100 µM
M14 melanoma
  TGI: > 100 µM
SNB-19 CNS
  TGI: > 100 µM
HS 578T breast
  TGI: > 100 µM
CCRF-CEM leukemia
  TGI: > 100 µM
SF-268 CNS
  TGI: > 100 µM
COLO 205 colon
  TGI: > 100 µM
K-562 leukemia
  TGI: > 100 µM
SNB-75 CNS
  TGI: > 100 µM
MOLT-4 leukemia
  TGI: > 100 µM
LOX IMVI melanoma
  TGI: > 100 µM
SK-MEL-5 melanoma
  TGI: > 100 µM
MDA-N
  TGI: > 100 µM
OVCAR-4 ovarian
  TGI: > 100 µM
ACHN renal
  TGI: > 100 µM
SR leukemia
  TGI: > 100 µM
SN12C renal
  TGI: > 100 µM
UACC-62 melanoma
  TGI: > 100 µM
SK-OV-3 ovarian
  TGI: > 100 µM
OVCAR-5 ovarian
  TGI: > 100 µM
RXF 393 renal
  TGI: > 100 µM
RPMI-8226 leukemia
  TGI: > 100 µM
HOP-92 NSCLC
  TGI: > 100 µM
DU-145 prostate
  TGI: > 100 µM
SF-295 CNS
  TGI: > 100 µM
HL-60(TB) leukemia
  TGI: > 100 µM
HT29 colon
  TGI: > 100 µM
TK-10 renal
  TGI: > 100 µM
MCF7 breast
  TGI: > 100 µM
PC-3 prostate
  TGI: > 100 µM
HOP-62 NSCLC
  TGI: > 100 µM
UO-31 renal
  TGI: > 100 µM
